Results taken from patent US10428045B2, “Benzazepine compounds, conjugates, and uses thereof” (Silverback Therapeutics, Inc., priority 2017, dated 2019).
Counter-ions that a name gives are not always drawn.

target: T1, hTLR7 (Homo sapiens, UniProt Q9NYK1); assay: TLR7/TLR8 reporter assay, HEK-Blue hTLR7 reporter cells; assay type: cell-based; conditions: 17 hours, optical density at 640 nm
T1 construct: host or cells: HEK-Blue hTLR7 (HEK293-derived reporter cell line)
T1 sequence (Q9NYK1 27-1049): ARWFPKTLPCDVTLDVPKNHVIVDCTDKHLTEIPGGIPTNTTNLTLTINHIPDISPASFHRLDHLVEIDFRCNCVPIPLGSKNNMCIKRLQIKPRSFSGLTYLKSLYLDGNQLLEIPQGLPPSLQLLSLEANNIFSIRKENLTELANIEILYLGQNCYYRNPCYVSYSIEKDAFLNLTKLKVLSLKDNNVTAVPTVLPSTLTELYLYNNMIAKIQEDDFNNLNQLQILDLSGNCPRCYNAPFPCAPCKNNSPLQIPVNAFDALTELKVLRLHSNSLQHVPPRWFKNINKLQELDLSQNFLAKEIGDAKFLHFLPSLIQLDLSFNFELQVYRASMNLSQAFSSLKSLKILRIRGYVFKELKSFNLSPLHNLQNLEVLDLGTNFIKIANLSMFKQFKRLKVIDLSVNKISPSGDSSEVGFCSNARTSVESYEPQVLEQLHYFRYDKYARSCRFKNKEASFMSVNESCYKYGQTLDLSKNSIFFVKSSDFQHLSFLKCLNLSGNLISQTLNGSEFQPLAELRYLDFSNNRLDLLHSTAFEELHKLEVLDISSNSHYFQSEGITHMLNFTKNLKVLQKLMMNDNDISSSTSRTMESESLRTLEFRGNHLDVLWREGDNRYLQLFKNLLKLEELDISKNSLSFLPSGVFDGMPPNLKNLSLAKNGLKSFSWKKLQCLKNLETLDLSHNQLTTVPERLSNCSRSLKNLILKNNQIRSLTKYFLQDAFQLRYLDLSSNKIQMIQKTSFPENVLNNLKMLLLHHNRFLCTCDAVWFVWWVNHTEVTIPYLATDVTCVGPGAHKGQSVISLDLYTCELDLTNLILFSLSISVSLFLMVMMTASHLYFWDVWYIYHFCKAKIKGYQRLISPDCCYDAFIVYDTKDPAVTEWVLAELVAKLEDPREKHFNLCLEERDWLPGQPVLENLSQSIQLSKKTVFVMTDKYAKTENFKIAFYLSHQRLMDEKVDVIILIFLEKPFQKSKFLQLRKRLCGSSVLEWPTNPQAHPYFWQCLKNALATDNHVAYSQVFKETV
Description: (§1) Reporter cells lines (namely HEK-Blue Null1, HEK-Blue hTLR7 and HEK-Blue hTLR8) are obtained from InvivoGen. Cells are passed/expanded/stored in liquid nitrogen per supplier's instruction. The cells are typically split twice per week in the growth media of DMEM supplemented with 10% fetal bovine serum, 1× NEAA, 1 mM Pyruvate, 2 mM glutamine, 50 μg/mL penicillin, 50 U/mL streptomycin (each from Gibco) in the presence of the following antibiotics, as shown in Table 3:
(§2) Test samples (at desired concentrations diluted in DMEM) are added to the 96-well assay plate, 20 μL per well. Reporter cells are harvested from the tissue culture flasks by incubation in PBS at 37° C. for two minutes after the media in the flask is removed and cells rinsed with PBS. Cells are counted and diluted in the HEK-Blue Detection media at 0.22×10^6 cells/mL. Then 180 μL of cells are added to the assay plate containing the 20 μL of test samples, and incubated for 17 hours at 37° C. in a 5% CO2 humidified incubator. Optical density at 640 nm is analyzed using an Envision (Perkin Elmer) plate reader.

How did the EC50 turn out when `CCCN(CCC)C(=O)C1=Cc2ccc(C(=O)Nc3cncc(CNC(=O)[C@@H](NC(=O)OCc4ccccc4)C(C)C)c3)cc2N=C(N)C1` [Compound 1.15, benzyl (S)-(1-(((5-(2-amino-4-(dipropyl-carbamoyl)-3H-benzo[b]azepine-8-carboxamido)pyridin-3-yl)methyl)amino)-3-methyl-1-oxobutan-2-yl)carbamate] was run?
Its EC50 is > 1 µM.

target: T2, hTLR8 (Homo sapiens, UniProt Q9NR97); assay: TLR7/TLR8 reporter assay, HEK-Blue hTLR8 reporter cells; assay type: cell-based; conditions: 17 hours, optical density at 640 nm
T2 construct: host or cells: HEK-Blue hTLR8 (HEK293-derived reporter cell line)
T2 sequence (Q9NR97 27-1041): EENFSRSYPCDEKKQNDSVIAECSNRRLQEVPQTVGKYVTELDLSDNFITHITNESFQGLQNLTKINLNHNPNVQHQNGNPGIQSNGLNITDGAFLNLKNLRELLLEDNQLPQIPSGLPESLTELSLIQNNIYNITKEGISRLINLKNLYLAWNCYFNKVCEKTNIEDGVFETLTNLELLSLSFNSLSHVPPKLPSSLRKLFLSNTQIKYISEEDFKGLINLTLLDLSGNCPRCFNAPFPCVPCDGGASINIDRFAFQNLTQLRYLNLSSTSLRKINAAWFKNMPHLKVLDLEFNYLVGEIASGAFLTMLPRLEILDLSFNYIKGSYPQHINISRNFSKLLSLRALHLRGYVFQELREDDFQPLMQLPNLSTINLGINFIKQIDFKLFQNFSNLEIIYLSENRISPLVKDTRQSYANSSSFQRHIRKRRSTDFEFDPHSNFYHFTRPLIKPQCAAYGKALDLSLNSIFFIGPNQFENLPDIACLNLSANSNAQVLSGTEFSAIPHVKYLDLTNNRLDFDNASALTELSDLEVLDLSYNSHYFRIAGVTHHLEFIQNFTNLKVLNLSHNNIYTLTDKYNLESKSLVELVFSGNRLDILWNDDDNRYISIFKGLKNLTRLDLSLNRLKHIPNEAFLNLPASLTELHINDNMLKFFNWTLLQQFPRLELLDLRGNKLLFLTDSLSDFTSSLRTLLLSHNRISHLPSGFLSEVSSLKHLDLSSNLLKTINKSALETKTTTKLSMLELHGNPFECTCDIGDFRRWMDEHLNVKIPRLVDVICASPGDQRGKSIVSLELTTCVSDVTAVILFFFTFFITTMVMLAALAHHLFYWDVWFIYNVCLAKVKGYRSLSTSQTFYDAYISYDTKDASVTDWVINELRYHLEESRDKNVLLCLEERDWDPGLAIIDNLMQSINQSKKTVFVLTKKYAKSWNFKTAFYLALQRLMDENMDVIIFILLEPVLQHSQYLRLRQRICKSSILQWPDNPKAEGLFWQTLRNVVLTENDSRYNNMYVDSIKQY
Description: as §1, §2

With `CCCN(CCC)C(=O)C1=Cc2ccc(C(=O)Nc3cncc(CNC(=O)[C@@H](NC(=O)OCc4ccccc4)C(C)C)c3)cc2N=C(N)C1` [Compound 1.15, benzyl (S)-(1-(((5-(2-amino-4-(dipropyl-carbamoyl)-3H-benzo[b]azepine-8-carboxamido)pyridin-3-yl)methyl)amino)-3-methyl-1-oxobutan-2-yl)carbamate] as the compound, how does the EC50 read?
The EC50 was < 0.5 µM.

test system: Human peripheral blood mononuclear cells (PBMC); assay: PBMC screening assay, TNF-α in supernatant; assay type: cell-based; conditions: TNF-α in supernatant of human PBMC, 24 hours, ELISA or HTRF
Description: Human peripheral blood mononuclear cells (PBMC) were obtained from BenTek, frozen at 25×10^6 cell/mL in 10% DMSO (Sigma) prepared in fetal bovine serum (Gibco) and stored in liquid nitrogen. For culture PBMC were thawed quickly in a 37° C. water bath and diluted into pre-warmed RPMI 1640 (Lonza) supplemented with 10% fetal bovine serum, 2 mM glutamine, 50 μg/mL penicillin, 50 U/mL streptomycin (all from Gibco) and centrifuged for 5 minutes at 500×g. PBMC were suspended into the growth media described above and cultured at a concentration of 1×10^6 cells per mL at 37° C. in a 5% CO2 incubator.
PBMC were thawed, suspended at a concentration of 1×10^6 cell/mL in growth media and 200 μL was aliquoted into each well of a 96-well plate for a total of 0.2×10^6 cells per well. PBMC were incubated for 16-18 hours at 37° C. in a 5% CO2 humidified incubator. The following day PBMC plates were centrifuged at 500×g for 5 minutes and the growth media was removed. 150 μL of twelve concentrations ranging from 1000 to 0.000238 nM of small molecules prepared in growth media were added to PBMC in duplicate and incubated for 24 hours at 37° C. in a 5% CO2 incubator. Prior to supernatant harvest, cells were spun at 500×g for 5 minutes to remove cell debris. TNF-α activity was assessed in the supernatant by ELISA (eBioscience) or HTRF (CisBio) per the manufacturer's instructions. Optical density at 450 nm and 570 nm (ELISA) or luminescence (HTRF) was analyzed using an Envision (Perkin Elmer) plate reader, as shown in Table 5.

With `CCCN(CCC)C(=O)C1=Cc2ccc(C(=O)Nc3cncc(CNC(=O)[C@H](N)Cc4ccccc4)c3)cc2N=C(N)C1` [Compound 1.36, (R)-2-amino-N^8-(5-((2-amino-3-phenyl-propanamido)-methyl)pyridine-3-yl)-N^4,N^4-dipropyl-3H-benzo[b]azepine-4,8-dicarboxamide] as the compound, how does the EC50 read?
The EC50 was < 0.5 µM.

For `CCCN(CCC)C(=O)C1=Cc2ccc(C(=O)Nc3cncc(CNC(=O)Oc4ccccc4)c3)cc2N=C(N)C1` [Compound 1.37, Phenyl ((5-(2-amino-4-(dipropylcarbamoyl)-3H-benzo[b]azepine-8-carboxamido)pyridin-3-yl)methyl)carbamate], which EC50 is on record?
The EC50 was < 0.5 µM.

How did the EC50 turn out when `CCCN(CCC)C(=O)C1=Cc2ccc(C(=O)Nc3cncc(CNC(=O)CC(N)c4ccccc4)c3)cc2N=C(N)C1` (stereo not shown) [Compound 1.38, 2-amino-N^8-(5-((3-amino-3-phenyl-propanamido)methyl)-pyridin-3-yl)-N^4,N^4-dipropyl-3H-benzo[b]azepine-4,8-dicarboxamide] was run?
Its EC50 is < 0.5 µM.

Which EC50 does the source give for `CCCN(CCC)C(=O)C1=Cc2ccc(C(=O)Nc3cnc4c(c3)C(N)CCC4)cc2N=C(N)C1` (stereo not shown) [Compound 1.39, 2-amino-N^8-(5-amino-5,6,7,8-tetrahydro-quinolin-3-yl)-N^4,N^4-dipropyl-3H-benzo-[b]azepine-4,8-dicarbox-amide] here?
Its EC50 is < 0.5 µM.

For `CCCN(CCC)C(=O)C1=Cc2ccc(C(=O)NCC3OB(O)c4ccccc43)cc2N=C(N)C1` (stereo not shown) [Compound 1.47, 2-amino-N^8-((1-hydroxy-1,3-dihydro-benzo[c][1,2]oxaborol-3-yl)methyl)-N4,N4-dipropyl-3H-benzo[b]azepine-4,8-dicarboxamide], which EC50 is on record?
Its EC50 is 0.5 to 1 µM.

How did the EC50 turn out when `CCCN(CCC)C(=O)C1=Cc2ccc(C(=O)Nc3cnc4c(c3)CN(Cc3ccccc3)CC4)cc2N=C(N)C1` [Compound 1.48, 2-amino-N^8-(6-benzyl-5,6,7,8-tetrahydro-1,6-naphthyridin-3-yl)-N^4,N^4-dipropyl-3H-benzo[b]azepine-4,8-dicarboxamide] was run?
The EC50 was < 0.5 µM.

How did the EC50 turn out when `CCCN(CCC)C(=O)C1=Cc2ccc(C(=O)NCC3OB(O)c4cc(NC(=O)OCc5ccccc5)ccc43)cc2N=C(N)C1` (stereo not shown) [Compound 1.49, benzyl (3-((2-amino-4-(dipropylcarbamoyl)-3H-benzo[b]azepine-8-carboxamido)methyl)-1-hydroxy-1,3-dihydrobenzo[c][1,2]oxaborol-6-yl)carbamate TFA salt] was run?
The EC50 was 0.5 to 1 µM.

With `CCCN(CCC)C(=O)C1=Cc2ccc(C(=O)Nc3cnc4c(c3)CNCC4)cc2N=C(N)C1` [Compound 1.50, 2-amino-N^4,N^4-dipropyl-N^8-(5,6,7,8-tetrahydro-1,6-naphthyridin-3-yl)-3H-benzo[b]azepine-4,8-dicarboxamide] as the compound, how does the EC50 read?
The EC50 was < 0.5 µM.

For `CCCN(CCC)C(=O)C1=Cc2ccc(C(=O)Nc3cncc(CNC(=O)[C@@H](N)C(C)C)c3)cc2N=C(N)C1` [Compound 1.51, (S)-2-amino-N^8-(5-((2-amino-3-methylbutanamido)methyl)pyridin-3-yl)-N^4,N^4-dipropyl-3H-benzo[b]azepine-4,8-dicarboxamide], which EC50 is on record?
Its EC50 is 1 to 3 µM.

For `CCCN(CCC)C(=O)C1=Cc2ccc(C(=O)Nc3ccc(N4CCCC(N)C4)nc3)cc2N=C(N)C1` (stereo not shown) [Compound 1.56, 2-amino-N^8-(6-(3-aminopiperidin-1-yl)pyridin-3-yl)-N^4,N^4-dipropyl-3H-benzo[b]azepine-4,8-dicarboxamide], which EC50 is on record?
The EC50 was 1 to 3 µM.

`CCCN(CCC)C(=O)C1=Cc2ccc(C(=O)Nc3ccc(N4CCC(N)CC4)nc3)cc2N=C(N)C1` [Compound 1.57, 2-amino-N^8-(6-(4-aminopiperidin-1-yl)pyridin-3-yl)-N^4,N^4-dipropyl-3H-benzo[b]azepine-4,8-dicarboxamide tris HCl salt] was tested. Which EC50 did it give?
The EC50 was < 0.5 µM.

With `CCCN(CCC)C(=O)C1=Cc2ccc(C(=O)Nc3cncc(C4CCNC4)c3)cc2N=C(N)C1` (stereo not shown) [Compound 1.58, 2-amino-N^4,N^4-dipropyl-N^8-(5-(pyrrolidin-3-yl)pyridin-3-yl)-3H-benzo[b]azepine-4,8-dicarboxamide] as the compound, how does the EC50 read?
The EC50 was 0.5 to 1 µM.

`CCCN(CCC)C(=O)C1=Cc2ccc(NC(=O)c3cccnc3)cc2N=C(N)C1` [Compound 1.62, 2-amino-8-(nicotinamido)-N,N-dipropyl-3H-benzo[b]azepine-4-carboxamide] was tested. Which EC50 did it give?
The EC50 was 0.5 to 1 µM.

Which EC50 does the source give for `CCCN(CCC)C(=O)C1=Cc2ccc(S(=O)(=O)Nc3cccnc3)cc2N=C(N)C1` [Compound 1.63, 2-amino-N,N-dipropyl-8-(N-(pyridin-3-yl)sulfamoyl)-3H-benzo[b]azepine-4-carboxamide] here?
The EC50 was 0.5 to 1 µM.
